Experimental data taken from patent US20230286998A1, “SUCCINATE SALTS OF OCTAHYDROTHIENOQUINOLINE COMPOUND AND CRYSTALS THEREOF” (KISSEI PHARMACEUTICAL CO., LTD., priority 2020, published 2023).
“Also recorded” adds a separate entry of the source. Structures can show the parent of a compound that is named as a salt.

How the values were obtained:
Format in all cases: physicochemical
[1] = Water adsorption and desorption test (IGA-Sorp); conditions: 25° C.
Protocol: The water adsorption and desorption behaviors of the Form I crystal of the salt (A-1), the crystal of hydrochloride salt of the compound (B) and the crystal of sebacate salt of the compound (B) were measured using IGA-Sorp (manufactured by HIDEN isochema) under the following conditions. The water adsorption and desorption isotherm of the Form I crystal of the salt (A-1) is shown in FIG. 11, and the water adsorption and desorption isotherm of hydrochloride salt of the compound (B) is shown in FIG. 12.
• Form I crystal of salt (A-1): 14.7 mg • Crystal of hydrochloride salt of compound (B): 10.4 mg • Crystal of sebacate salt of compound (B): 13.2 mg
Each specimen was placed in a water adsorption and desorption measurement device. The temperature and the humidity were set to 25° C./40% RH or 50% RH, and equilibration was conducted for 60 minutes or more to stabilize the mass.
The mass of each specimen subjected to mass equilibration was continuously measured while changing the relative humidity at every 5% RH in adsorption and desorption.
The mass % was expressed as a mass percentage of a mass change before and after adsorption (or desorption) based on a dry sample.

[2] = Stability Test 2: storage under an open condition at 40° C. and 75% relative humidity (powder X-ray diffraction, HPLC related substances, appearance); conditions: 2 months; for Increased Amount of related substance: HPLC area normalization; for Change of Crystal form: powder X-ray diffraction
Protocol: (§1) The Form I crystal of the salt (A-1), the Form I crystal of the salt (A-2), the crystal of hydrochloride salt of the compound (B), the crystal of sebacate salt of the compound (B) and the crystal of adipate salt were stored under an open condition at 40° C. and 75% relative humidity, and the physical stability and the chemical stability of each crystal form were examined. The powder X-ray diffractions of the samples at the start of the specimens and 2 months later were measured in the same manner as in Test Example 1, and the physical stability of the crystal forms and the amounts of the related substances were measured using the following HPLC measurement conditions, thereby observing the chemical stability. At the same time, changes in appearance were also observed.
(§2) • Detector: Ultraviolet and visible absorptiometer/wavelength: 225 nm • Column: L-column2 ODS, 3 μm, 4.6×150 mm (manufactured by Chemicals Evaluation and Research Institute, Japan) • Column temperature: constant temperature around 30° C. • Flow rate: 1.0 mL/min • Mobile phase A: a solution (pH 6.9) in which potassium dihydrogen phosphate and dipotassium hydrogen phosphate are mixed in water so as to be each 10 mmol/L • Mobile phase B: acetonitrile • Mobile phase ratios • 0 to 25 minutes: mobile phase A/mobile phase B=79/21 • 25 to 45 minutes: mobile phase A/mobile phase B=79/21 to 25/75 (Gradient) • 45 to 50 minutes: mobile phase A/mobile phase B=25/75 • Injection volume: 5 μL • Sample cooler: 4° C. • Dissolution solvent: A mixed solution prepared by adding 20 parts of acetonitrile to 80 parts of a 10 mmol/L potassium dihydrogen phosphate aqueous solution adjusted to pH 3. • Sample solution: A liquid obtained by dissolving the specimen in the dissolution solvent and adjusting to about 1.0 mg/mL as the compound (B).
(§3) Excluding the peaks derived from the blank, the peak areas of the respective peaks were measured by an automatic integration method, and the values thereof were determined by an area normalization method.

[3] = Stability Test 1: storage under an open condition at 60° C. (powder X-ray diffraction, HPLC related substances, appearance); conditions: 2 months; for Increased Amount of related substance: HPLC area normalization; for Change of Crystal form: powder X-ray diffraction
Protocol: as §1, with “hydrochloric acid” for “hydrochloride salt”, “60° C.,” for “40° C. and 75% relative humidity,”
as §2, with “a 20” for “a 10”
as §3

[4] = listed as Forn I crystal of the salt (A-2), Monosuccinate Salt

Change of water amount at adsorption ([1]; 50-90% RH, based on a dry sample) | Change of water amount at desorption ([1]; 90-0% RH, based on a dry sample) | hygroscopicity (in words) ([1]; water adsorption and desorption) | chemical stability (in words) [2] | Increased Amount of related substance [2] | Change of Crystal form ([2]; Sesquisuccinate Monohydrate) | chemical stability (in words) [3] | Increased Amount of related substance [3] | Change of Crystal form ([3]; Sesquisuccinate Monohydrate) | Change of Crystal form ([2]; Monosuccinate Salt) | Appearance ([3]; Monosuccinate Salt) | Appearance [3, 4] | Change of Crystal form ([3]; Monosuccinate Salt) | Change of Crystal form [3, 4] | Structure (SMILES) | Appearance ([2]; Sesquisuccinate Monohydrate) | Appearance ([3]; Sesquisuccinate Monohydrate) | Appearance ([2]; Monosuccinate Salt)
0.3 mass % | 0.8 mass % | does not exhibit hygroscopicity | chemically stable | +0.01% | No change in crystal form | chemically stable | No increase | No change in crystal form |  |  |  |  |  | CCCN(C(=O)NCCN(C)C)C(=O)[C@@H]1C[C@@H]2Cc3c(sc(N)c3C#N)C[C@H]2N(C)C1 [Form I crystal of the salt (A-1), 1-{[(4aR,6R,8aR)-2-Amino-3-cyano-8-methyl-4,4a,5,6,7,8,8a,9-octahydrothieno[3,2-g]quinolin-6-yl]carbonyl}-3-[2-(dimethylamino)ethyl]-1-propylurea Sesquisuccinate Monohydrate] | no change in appearance; also recorded: No change in white | almost no change in appearance; also recorded: White (A slight coloration | 
 |  |  | chemically stable | No increase |  | chemically stable | −0.05% |  | No change in crystal form | almost no change in appearance | White (A slight coloration | No change in crystal form | No change | CCCN(C(=O)NCCN(C)C)C(=O)[C@@H]1C[C@@H]2Cc3c(sc(N)c3C#N)C[C@H]2N(C)C1.O=C(O)CCC(=O)O [Form I crystal of the salt (A-2), 1-{[(4aR,6R,8aR)-2-Amino-3-cyano-8-methyl-4,4a,5,6,7,8,8a,9-octahydrothieno[3,2-g]quinolin-6-yl]carbonyl}-3-[2-(dimethylamino)ethyl]-1-propylurea Monosuccinate Salt] |  |  | no change in appearance; also recorded: No change in white
